Measurements taken from patent publication US20240424115A1, “LONG-ACTING INTERLEUKIN-15 RECEPTOR AGONISTS AND RELATED IMMUNOTHERAPEUTIC COMPOSITIONS AND METHODS” (Nektar Therapeutics, priority 2017, published 2024).
“Also recorded” adds a separate entry of the source. Where two headings read alike, the source gives them in different places.

Assays:
[1] = Single dose PK study in mice (plasma concentration)
Description: C57BL/6 mice (n=3/group) were administered a single intravenous dose of IL-15 (control) at 0.3 mg/kg) or of Conjugate 2 at a dose of 0.3 mg/kg. Following administration, blood samples were collected at various time points post administration (24 hours, 48 hours, 78 hours, 96 hours). […] Finally, at each time point, plasma concentration of drug was determined.
For PK analysis, Conjugate 1 was administered as a single intravenous dose at 0.3 mg/kg in balb/c mice (n=3). Following administration, mice were humanely sacrificed and plasma was collected 24, 48, 72, 96, 120 and 144 hours post treatment. From a separate study, mice were administered a single intravenous dose of IL-15 (0.5 mg/kg). Samples from these mice were collected at the indicated time points within 6 hours of treatment.
Balb/c mice (n=3/group) were administered a single intravenous dose of IL-15 (500 ug/kg) or of Conjugate 1 at 10, 30, 100, 300 and 1000 μg/kg. Blood samples were collected at the indicated time points post administration (conjugate 1:24, 48, 72, 96, 120, 144, 240 hours; IL-15 control: 0.03, 0.08, 0.25, 0.5, 1, 2, 4, 6, 8, hours) and plasma concentration of drug was determined.

human PBMCs = assay: HuPBMC-pStat5 assay (flow cytometry, lymphocyte subpopulations); format: cell-based
Description: The potency of IL-15 or long acting IL-15 R agonists on various human lymphocyte subpopulations was determined by phospho-STAT5 (Y694) dose response assay. Frozen human PBMCs from multiple donors were supplied by AllCells. 1×10^6 cells/100ul were cultured in complete RPMI media for 2 hours and then incubated with the indicated concentrations (10,000ng/ml-0.001ng/ml serial dilutions) of IL-15 or conjugates for 20minutes at 37c. The cells were then fixed (using BD Cytofix) and permeabilized (using 100% pre-chilled methanol) and stained with antibodies for CD3, CD4, CD8, CD4-Tregs (CD4+CD25+Foxp3+), CD56 and phosphorylated STAT5 (Y694) before analysis by flow cytometry. Concentration-response relationships were used to calculate the EC50 values.
Assessment of in-vitro activity of exemplary long-acting IL-15 receptor agonists (e.g., Conjugates 1, 3 and 5) was carried out by investigating signaling in NK cell subsets of human PBMCs as shown in FIGS. 10A (CD56bright cells) and 10B (CD56dim cells). STAT5 phosphorylation was evaluated as previously described for assessing IL-15 signaling activity of the long acting IL-15 receptor agonists.
A second study was conducted to investigate/compare the pStat5 response of human PBMCs obtained from two donors (CD3, CD4, CD8, CD56 (bright and dim) and CD4-Tregs (CD25+Foxp3+)) to IL-15, Conjugate 1 and Conjugate 5. An […] dose response was examined using a 10-fold dilution with a dose range of 0.001-10000 ng/ml and a 20 min stimulation. Each of the test articles was diluted in IL-15 buffer+0.1% BSA.
Assessment of in vitro activity of Conjugate 1 was carried out by investigating NK and CD8 JAK/STAT signaling after treatment of human PBMCs with IL-15 or Conjugate 1 at a dose range of 0.001-10000 ng/ml. STAT5 phosphorylation was assessed as previously described.

CTLL-2 cells = assay: Potency assay based on STAT5 phosphorylation in CTLL-2 cells; format: cell-based, murine; conditions: Table 2B
Description: In the phospho-STAT5 assay following receptor binding, downstream cell signaling can then activate Signal Transducer and Activator of Transcription 5 (STAT5) through phosphorylation to promote gene expression to induce cell proliferation. The activation of phosho-STAT5 is measured in CTLL-2 cells, a murine T lymphocyte cell line, using the phospho-STAT5/total STAT5 multiplexed assay (Meso Scale Discovery, MD) in response to sample and reference treatment for ˜10 minutes.
One day prior to the assay, CTLL-2 cells were split into fresh growth medium [RPMI 1640 supplemented with 10% FBS, 10% T-cell culture supplement (catalog #354115, Corning, Inc., Tewksbury, MA), 2 mM L-glutamate, and 1 mM sodium pyruvate]. On the day of assay, cells were pre-incubated in assay medium (RPMI 1640 supplemented with 1% FBS, 2 mM L-glutamate, and 1 mM sodium pyruvate) for at least four hours, and then plated in assay medium in a 96-well plate at 50,000 cells/well. Dilutions of the test article were prepared in an appropriate buffer immediately prior to assay. Stimulation of CTLL-2 cells was initiated by the transfer of 25X test article solutions to triplicate wells containing CTLL-2 cells. Plates were incubated at 37° C., 5% CO2 for 10 minutes, and the reaction was stopped by cell lysis. Detection of phospho-STAT5 and total STAT5 protein levels in cell lysates was performed using the MSD Phospho (Tyr694)/Total STATa,b Whole Cell Lysate Kit (Meso Scale Discovery, MD).

IL-15Rα = IL-15Rα (Homo sapiens, UniProt Q13261); assay: Receptor affinity for IL-15Rα by surface plasmon resonance (BIAcore); format: binding
Chain of IL-15Rα (Q13261 31-205 limits assumed): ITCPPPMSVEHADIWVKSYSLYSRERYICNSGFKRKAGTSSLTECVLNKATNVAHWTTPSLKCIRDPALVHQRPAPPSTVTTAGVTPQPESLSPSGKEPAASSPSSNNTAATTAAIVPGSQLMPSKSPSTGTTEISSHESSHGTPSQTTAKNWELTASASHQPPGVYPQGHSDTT
Description: The affinities of IL-15 and exemplary long acting rIL-15 receptor agonists were measured using Surface Plasmon Resonance (“SPR”) using a BIAcore™ SPR system. Briefly, the surface of a Biacore CM5 sensor chip was activated using a 1:1 mixture of NHS: EDC to generate active NHS esters. Goat anti-human Fc antibody was covalently attached to the surface by injecting it for five minutes in 10 mM sodium acetate (pH 4). There were approximately 8000 RU of antibodies bound to the surface. Any remaining NHS ester was then quenched with ethanolamine.
At the initiation of each injection cycle, IL-15-Rα-Fc was captured on a sensor chip channel by a five-minute injection step in PBSP. Typically, 150-200 RU of receptors were bound on the surface.
(§1) Long acting rIL-15 receptor agonist test articles were diluted to 10 µM in PBS (containing 0.05% Tween 20 and 0.1 mg/ml BSA). A series of 3-fold dilutions were made and injected onto a sensor chip which was coated with IL-15Rα. The affinities were measured by determining the ka and kd rates separately, and the ratio between kd and ka was used to calculate the Kd values.
The affinities of exemplary long-acting IL-15 receptor agonists (test articles) for the IL-15 α receptor were measured and compared to IL-15. Affinity was measured by BIAcore using IL-15Rα:Fc captured by immobilized anti-Fc.
as §1, with “The” for “Long acting rIL-15 receptor agonist”, “μM” for “µM”, “between ka and” for “between”, “kd” for “kd and ka”, “[…]” for “Kd”

In the case of “IL-15: recombinant human IL-15 from E. coli, SEQ ID NO: 1, non-glycosylated, 12.9 kDa; unconjugated comparator”, the half-life ([1]; balb/c mice, single i.v., Conjugate 1 0.3 mg/kg, IL-15 0.5 mg/kg (Example 16)) is reported as “less than 1 hours”, the “plasma levels following administration” value ([1]; mice, single i.v. dose) is reported as “rapid drop in plasma levels; also recorded: rapidly cleared” and the “EC50 (ng/ml)-% pSTAT5 CD3 donor1” value (human PBMCs; CD3 cells, donor1, 20 min stimulation) is reported as 0.17 ng/ml. The “EC50 (ng/ml)-% pSTAT5 CD3 donor2” value (human PBMCs; CD3 cells, donor2, 20 min stimulation) was 0.17 ng/ml, the “EC50 (ng/ml)-% pSTAT5 Treg donor1” value (human PBMCs; CD4-Treg cells, donor1) was 0.08 ng/ml and the “EC50 (ng/ml)-% pSTAT5 Treg donor2” value (human PBMCs; CD4-Treg cells, donor2) was 0.084 ng/ml. The “EC50 (ng/ml)-% pSTAT5 CD4 donor1” value (human PBMCs; CD4 cells, donor1) was 0.177 ng/ml, the “EC50 (ng/ml)-% pSTAT5 CD4 donor2” value (human PBMCs; CD4 cells, donor2) was 0.20 ng/ml and the “EC50 (ng/ml)-% pSTAT5 CD8 donor1” value (human PBMCs; CD8 cells, donor1) was 0.17 ng/ml. The “EC50 (ng/ml)-% pSTAT5 CD8 donor2” value (human PBMCs; CD8 cells, donor2) was 0.15 ng/ml, the “EC50 (ng/ml)-% pSTAT5 CD56bright donor1” value (human PBMCs; CD56bright cells, donor1) was 0.11 ng/ml and the “EC50 (ng/ml)-% pSTAT5 CD56bright donor2” value (human PBMCs; CD56bright cells, donor2) was 0.19 ng/ml. The “EC50 (ng/ml)-% pSTAT5 CD56dim donor1” value (human PBMCs; CD56dim cells, donor1) was 0.26 ng/ml, the “EC50 (ng/ml)-% pSTAT5 CD56dim donor2” value (human PBMCs; CD56dim cells, donor2) was 0.54 ng/ml and the “EC50 (ng/ml) pSTAT5 CD56bright NK” value (human PBMCs; Table 3, CD56bright NK cells) was 0.4 ng/ml. The “EC50 (ng/ml)-% pSTAT5 CD3” value (human PBMCs; Table 7 Summary Table, CD3) was 0.17 ng/ml, the “EC50 (ng/ml)-% pSTAT5 CD4” value (human PBMCs; Table 7 Summary Table, CD4) was 0.177 ng/ml and the “EC50 (ng/ml)-% pSTAT5 CD8” value (human PBMCs; Table 7 Summary Table, CD8) was 0.17 ng/ml. The “EC50 (ng/ml)-% pSTAT5 CD56bright” value (human PBMCs; Table 7 Summary Table, CD56bright) was 0.11 ng/ml, the “EC50 (ng/ml)-% pSTAT5 CD56dim” value (human PBMCs; Table 7 Summary Table, CD56dim) was 0.26 ng/ml and the “EC50 (ng/ml)-% pSTAT5 Treg” value (human PBMCs; Table 7 Summary Table, Treg) was 0.08 ng/ml. For the same substance, the “EC50 (ng/ml)-MFI CD3 donor1” value (human PBMCs; pSTAT5 MFI, CD3 cells, donor1) was 4.0 ng/mL, the “EC50 (ng/ml)-MFI CD3 donor2” value (human PBMCs; pSTAT5 MFI, CD3 cells, donor2) was 5.22 ng/mL and the “EC50 (ng/ml)-MFI Treg donor1” value (human PBMCs; pSTAT5 MFI, CD4-Treg cells, donor1) was 0.6 ng/mL. The “EC50 (ng/ml)-MFI Treg donor2” value (human PBMCs; pSTAT5 MFI, CD4-Treg cells, donor2) was 0.71 ng/mL, the “EC50 (ng/ml)-MFI CD4 donor1” value (human PBMCs; pSTAT5 MFI, CD4 cells, donor1) was 3.6 ng/mL and the “EC50 (ng/ml)-MFI CD4 donor2” value (human PBMCs; pSTAT5 MFI, CD4 cells, donor2) was 5.8 ng/mL. The “EC50 (ng/ml)-MFI CD8 donor1” value (human PBMCs; pSTAT5 MFI, CD8 cells, donor1) was 3.5 ng/mL, the “EC50 (ng/ml)-MFI CD8 donor2” value (human PBMCs; pSTAT5 MFI, CD8 cells, donor2) was 5.5 ng/mL and the “EC50 (ng/ml)-MFI CD56bright donor1” value (human PBMCs; pSTAT5 MFI, CD56bright cells, donor1) was 0.49 ng/mL. For the same substance, the “EC50 (ng/ml)-MFI CD56bright donor2” value (human PBMCs; pSTAT5 MFI, CD56bright cells, donor2) was 0.96 ng/mL, the “EC50 (ng/ml)-MFI CD56dim donor1” value (human PBMCs; pSTAT5 MFI, CD56dim cells, donor1) was 1.4 ng/mL and the “EC50 (ng/ml)-MFI CD56dim donor2” value (human PBMCs; pSTAT5 MFI, CD56dim cells, donor2) was 3.7 ng/mL. The “EC50 (ng/mL) CTLL-2 pSTAT5” value (CTLL-2 cells) was 0.27 ng/mL, the ka (IL-15Rα; Table 2A, IL-15Rα:Fc captured by anti-Fc) was 578000 M⁻¹ s⁻¹ and the “dissociation rate constant (kd)” value (IL-15Rα; Table 2A, dissociation rate) was 0.000149 s⁻¹. The Kd (IL-15Rα; Table 2A, read-out: KD) was 0.258 nM and the Kd (IL-15Rα; Table 2B, read-out: IL-15Rα KD) was 0.258 nM.
